Data published in patent publication US20230374015A1, “INHIBITORS OF FIBROBLAST GROWTH FACTOR RECEPTOR KINASES” (Kinnate Biopharma Inc., priority 2020, published 2023).

Biological target: FGFR2 (Homo sapiens, UniProt P21802)
Assay: FGFR2 Kinase Protocol - Condition 2 (Reaction Biology HotSpot radiometric kinase assay, no preincubation)
Format: biochemical
Details: poly[Glu:Tyr] (4:1) 0.2 mg/ml, ATP 100 microM, 2 hr room temperature
How it was run: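 Radiometric HotSpot format: FGFR2 (wildtype or V564F) with poly[Glu:Tyr] (4:1) at 0.2 mg/ml in HEPES pH 7.5 buffer with 1% DMSO; ATP plus [γ33P]ATP at 100 µM total, added without preincubation. Reactions ran 2 hr at room temperature, then filter-bound. IC50 from 10-dose, 3-fold series versus DMSO control.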

Sequence of FGFR2 (P21802 22-821): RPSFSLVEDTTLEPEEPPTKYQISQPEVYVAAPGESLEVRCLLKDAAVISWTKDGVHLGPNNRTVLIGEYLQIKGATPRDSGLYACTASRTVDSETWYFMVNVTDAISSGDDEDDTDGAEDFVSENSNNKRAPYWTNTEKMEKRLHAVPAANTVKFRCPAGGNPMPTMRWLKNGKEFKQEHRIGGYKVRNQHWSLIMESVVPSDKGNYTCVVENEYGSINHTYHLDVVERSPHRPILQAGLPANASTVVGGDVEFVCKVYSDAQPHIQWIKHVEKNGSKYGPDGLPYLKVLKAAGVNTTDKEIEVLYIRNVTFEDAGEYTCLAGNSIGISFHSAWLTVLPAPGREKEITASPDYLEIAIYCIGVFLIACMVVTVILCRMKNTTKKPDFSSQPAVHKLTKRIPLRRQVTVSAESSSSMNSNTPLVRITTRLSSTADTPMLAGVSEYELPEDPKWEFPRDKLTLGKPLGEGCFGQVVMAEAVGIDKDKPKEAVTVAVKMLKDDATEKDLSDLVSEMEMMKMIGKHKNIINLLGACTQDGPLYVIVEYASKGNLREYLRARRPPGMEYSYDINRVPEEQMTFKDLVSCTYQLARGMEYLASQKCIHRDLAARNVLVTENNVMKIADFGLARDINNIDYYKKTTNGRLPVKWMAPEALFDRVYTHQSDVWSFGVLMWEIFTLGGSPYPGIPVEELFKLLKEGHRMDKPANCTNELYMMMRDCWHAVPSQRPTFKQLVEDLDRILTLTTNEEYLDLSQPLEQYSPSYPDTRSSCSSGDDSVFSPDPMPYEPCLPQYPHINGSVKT

Row | IC50 [nM] | SMILES
1 | ≤ 100 | C=CC(=O)N1C[C@@H](n2nc(C#Cc3cc4ncn(C(F)F)c4cc3F)c3c(N)ncnc32)C[C@@H]1COC [Example 82, 1-[(2R,4S)-4-(4-Amino-3-[2-[1-(difluoromethyl)-6-fluoro-1,3-benzodiazol-5-yl]ethynyl]pyrazolo[3,4-d]pyrimidin-1-yl)-2-(methoxymethyl)pyrrolidin-1-yl]prop-2-en-1-one]
2 | ≤ 100 | C=CC(=O)N1C[C@@H](n2nc(C#Cc3cc4ncn(C)c4cc3Cl)c3c(N)nccc32)C[C@@H]1C [Example 167, 1-((2S,4S)-4-(4-amino-3-((6-chloro-1-methyl-1H-benzo[d]imidazol-5-yl)ethynyl)-1H-pyrazolo[4,3-c]pyridin-1-yl)-2-methylpyrrolidin-1-yl)prop-2-en-1-one]
3 | ≤ 100 | C=CC(=O)N1CC[C@H](n2nc(C#Cc3cc4ncn(C)c4cc3F)c3c(N)ncnc32)C1 [Example 140, 1-[(3S)-3-{4-Amino-3-[2-(6-fluoro-1-methyl-1,3-benzodiazol-5-yl)ethynyl]pyrazolo[3,4-d]pyrimidin-1-yl}pyrrolidin-1-yl]prop-2-en-1-one]
4 | ≤ 100 | C=CC(=O)N1C[C@@H](n2nc(C#Cc3cc4ncn(C)c4cc3F)c3c(N)nccc32)C[C@@H]1C(F)F [Example 181, 1-((2R,4S)-4-(4-amino-3-((6-fluoro-1-methyl-1H-benzo[d]imidazol-5-yl)ethynyl)-1H-pyrazolo[4,3-c]pyridin-1-yl)-2-(difluoromethyl)pyrrolidin-1-yl)prop-2-en-1-one]
5 | ≤ 100 | C=CC(=O)N1C[C@@H](n2nc(C#Cc3cc4ncn(CC)c4cc3F)c3c(N)nccc32)C[C@@H]1C(F)F [Example 171, 1-((2R,4S)-4-(4-amino-3-((1-ethyl-6-fluoro-1H-benzo[d]imidazol-5-yl)ethynyl)-1H-pyrazolo[4,3-c]pyridin-1-yl)-2-(difluoromethyl)pyrrolidin-1-yl)prop-2-en-1-one]
6 | ≤ 100 | C=CC(=O)N1C[C@@H](n2nc(C#Cc3cc4ncn(CC)c4cc3Cl)c3c(N)nccc32)C[C@@H]1COC [Example 88, 1-[(2R,4S)-4-[4-Amino-3-[2-(6-chloro-1-ethyl-1,3-benzodiazol-5-yl)ethynyl]pyrazolo[4,3-c]pyridin-1-yl]-2-(methoxymethyl)pyrrolidin-1-yl]prop-2-en-1-one]

Second part, the compound before the results:

Row | SMILES | IC50 [nM]
7 | C=CC(=O)N1C[C@@H](n2nc(C#Cc3ccc4c(c3)nc(C)n4C)c3c(N)nccc32)C[C@@H]1CC#N [Example 43, 2-((2R,4S)-1-acryloyl-4-(4-amino-3-((1,2-dimethyl-1H-benzo[d]imidazol-5-yl)ethynyl)-1H-pyrazolo[4,3-c]pyridin-1-yl)pyrrolidin-2-yl)acetonitrile] | ≤ 100
8 | C=CC(=O)N1CC[C@H](n2nc(C#Cc3cc4ncn(C5CC5)c4c(F)c3Cl)c3c(N)ncnc32)C1 [Example 190, 1-[(3S)-3-{4-Amino-3-[2-(6-chloro-1-cyclopropyl-7-fluoro-1,3-benzodiazol-5-yl)ethynyl]pyrazolo[3,4-d]pyrimidin-1-yl}pyrrolidin-1-yl]prop-2-en-1-one] | ≤ 100
9 | C=CC(=O)N1CC[C@H](n2nc(C#Cc3cc4ncn(C)c4c(F)c3Cl)c3c(N)ncnc32)C1 [Example 145, (S)-1-(3-(4-Amino-3-((6-chloro-7-fluoro-1-methyl-1H-benzo[d]imidazol-5-yl)ethynyl)-1H-pyrazolo[3,4-d]pyrimidin-1-yl)pyrrolidin-1-yl)prop-2-en-1-one] | ≤ 100
10 | C=CC(=O)N1C[C@@H](n2nc(C#Cc3cc4ncn(C)c4cc3Cl)c3c(N)ncnc32)C[C@@H]1COC [Example 90, 1-[(2R,4S)-4-[4-Amino-3-[2-(6-chloro-1-methyl-1,3-benzodiazol-5-yl)ethynyl]pyrazolo[3,4-d]pyrimidin-1-yl]-2-(methoxymethyl)pyrrolidin-1-yl]prop-2-en-1-one] | ≤ 100
11 | C=CC(=O)N1C[C@@H](n2nc(C#Cc3cc4ncn(CC)c4cc3F)c3c(N)ncnc32)C[C@@H]1COC(F)(F)F [Example 71, 1-[(2R,4S)-4-[4-amino-3-[2-(1-ethyl-6-fluoro-1,3-benzodiazol-5-yl)ethynyl]pyrazolo[3,4-d]pyrimidin-1-yl]-2-[(trifluoromethoxy)methyl]pyrrolidin-1-yl]prop-2-en-1-one] | ≤ 100
12 | C=CC(=O)N1CC[C@H](n2nc(C#Cc3cc4ncn(CC)c4c(F)c3F)c3c(N)nccc32)C1 [Example 155, 1-[(3S)-3-{4-Amino-3-[2-(1-ethyl-6,7-difluoro-1,3-benzodiazol-5-yl)ethynyl]pyrazolo[4,3-c]pyridin-1-yl}pyrrolidin-1-yl]prop-2-en-1-one] | ≤ 100
13 | C=CC(=O)N1C[C@@H](n2nc(C#Cc3cc4ncn(C5CC5)c4cc3Cl)c3c(N)ncnc32)C[C@@H]1CC#N [Example 187, 2-[(2R,4S)-4-{4-Amino-3-[2-(6-chloro-1-cyclopropyl-1,3-benzodiazol-5-yl)ethynyl]pyrazolo[3,4-d]pyrimidin-1-yl}-1-(prop-2-enoyl)pyrrolidin-2-yl]acetonitrile] | ≤ 100
14 | C=CC(=O)N1C[C@@H](n2nc(C#Cc3c(Cl)cc4c(nc(C)n4C)c3F)c3c(N)nccc32)C[C@@H]1COC [Example 103, 1-((2R,4S)-4-(4-Amino-3-((6-chloro-4-fluoro-1,2-dimethyl-1H-benzo[d]imidazol-5-yl)ethynyl)-1H-pyrazolo[4,3-c]pyridin-1-yl)-2-(methoxymethyl)pyrrolidin-1-yl)prop-2-en-1-one] | ≤ 100
15 | C=CC(=O)N1C[C@@H](n2nc(C#Cc3c(F)cc4c(ncn4C4CC4)c3F)c3c(N)ncnc32)C[C@@H]1COC(F)(F)F [Example 76, 1-[(2R,4S)-4-[4-Amino-3-[2-(1-cyclopropyl-4,6-difluoro-1,3-benzodiazol-5-yl)ethynyl]pyrazolo[3,4-d]pyrimidin-1-yl]-2-[(trifluoromethoxy)methyl]pyrrolidin-1-yl]prop-2-en-1-one] | ≤ 100
16 | C=CC(=O)N1CC[C@H](n2nc(C#Cc3cc4ncn(C5CC5)c4cc3Cl)c3c(N)ncnc32)C1 [Example 191, 1-[(3S)-3-{4-Amino-3-[2-(6-chloro-1-cyclopropyl-1,3-benzodiazol-5-yl)ethynyl]pyrazolo[3,4-d]pyrimidin-1-yl}pyrrolidin-1-yl]prop-2-en-1-one] | ≤ 100
17 | C=CC(=O)N1C[C@@H](n2nc(C#Cc3c(F)cc4c(ncn4C)c3F)c3c(N)ncnc32)C[C@@H]1COC [Example 55, 1-[(2R,4S)-4-[4-Amino-3-[2-(4,6-difluoro-1-methyl-1,3-benzodiazol-5-yl)ethynyl]pyrazolo[3,4-d]pyrimidin-1-yl]-2-(methoxymethyl)pyrrolidin-1-yl] prop-2-en-1-one] | ≤ 100
18 | C=CC(=O)N1C[C@@H](n2cc(C#Cc3cc4ncn(C)c4cc3F)c3c(N)ncnc32)C[C@@H]1COC(F)(F)F [Example 67, 1-((2R,4S)-4-(4-Amino-5-((6-fluoro-1-methyl-1H-benzo[d]imidazol-5-yl)ethynyl)-7H-pyrrolo[2,3-d]pyrimidin-7-yl)-2-((trifluoromethoxy)methyl)pyrrolidin-1-yl)prop-2-en-1-one] | ≤ 100
19 | C=CC(=O)N1CC[C@H](n2nc(C#Cc3cc4ncn(C5CC5)c4c(F)c3F)c3c(N)ncnc32)C1 [Example 194, 1-[(3S)-3-{4-Amino-3-[2-(1-cyclopropyl-6,7-difluoro-1,3-benzodiazol-5-yl)ethynyl]pyrazolo[3,4-d]pyrimidin-1-yl}pyrrolidin-1-yl]prop-2-en-1-one] | ≤ 100
